Test [1] has as its target T1, human melatonin MT2 receptor (Homo sapiens, UniProt P49286).
T1 construct: gene MTNR1B; receptor stably expressed in transfected CHO cells, membrane preparation
T1 sequence (P49286 1-362): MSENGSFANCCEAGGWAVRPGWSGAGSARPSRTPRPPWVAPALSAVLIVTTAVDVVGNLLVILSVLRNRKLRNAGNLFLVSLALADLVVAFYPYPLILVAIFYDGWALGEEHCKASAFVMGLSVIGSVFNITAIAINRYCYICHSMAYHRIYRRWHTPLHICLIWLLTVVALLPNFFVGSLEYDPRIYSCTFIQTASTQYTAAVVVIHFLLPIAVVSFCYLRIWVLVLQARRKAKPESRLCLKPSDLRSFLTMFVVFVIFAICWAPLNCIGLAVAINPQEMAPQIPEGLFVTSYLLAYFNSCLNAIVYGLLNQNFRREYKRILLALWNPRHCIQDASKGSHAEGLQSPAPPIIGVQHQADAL
Kind of test: […]-[…]iodomelatonin displacement, CHO membranes. Type of test: binding.

Test [2] addresses T2, human melatonin MT1 receptor (Homo sapiens, UniProt P48039).
T2 construct: gene MTNR1A; receptor stably expressed in transfected CHO cells, membrane preparation
Kind of test: […]-[…]iodomelatonin displacement, CHO membranes. The class given is binding.

Counter-ions that a name gives are not always drawn.

T2 sequence (P48039 whole entry): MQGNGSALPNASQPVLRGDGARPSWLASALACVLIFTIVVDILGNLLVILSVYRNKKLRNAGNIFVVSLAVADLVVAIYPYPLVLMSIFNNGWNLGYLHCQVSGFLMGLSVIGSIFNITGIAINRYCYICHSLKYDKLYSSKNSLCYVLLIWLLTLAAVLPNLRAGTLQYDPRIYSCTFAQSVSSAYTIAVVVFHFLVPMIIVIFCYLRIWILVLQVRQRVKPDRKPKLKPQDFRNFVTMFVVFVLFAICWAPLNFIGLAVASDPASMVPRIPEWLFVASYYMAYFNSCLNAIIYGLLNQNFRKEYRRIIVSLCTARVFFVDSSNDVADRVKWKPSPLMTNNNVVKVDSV

Consider `COc1ccc2ccc3c(c2c1)CCN(C(C)=O)C3` [9b, 1-(9-Methoxy-1,2,3,4-tetrahydro-benzo[f]isoquinolein-3-yl)ethanone], for which the inhibitory constant (Ki) was 800 ± 59 nM in test [1] and 3000 ± 27 nM in test [2].

Regarding `COc1ccc2cccc(CC3=NOS(=O)N3)c2c1` (stereo not shown) [compound 3, 4-[(7-Methoxynaphth-1-yl)methyl]-3H-1,2,3,5-oxathiadiazole 2-oxide], the Ki in test [1] was 1300 nM; in test [2], > 1000 nM.

For the compound `COc1ccc2cccc(Cc3nn[nH]n3)c2c1` [compound 5, 5-(7-Methoxynaphth-1-ylmethyl)-1H-tetrazole], the Ki in test [1] came to 190 ± 84 nM; in test [2], 380 ± 114 nM.

On to `COc1ccc2cccc(CCNc3ncc(C)s3)c2c1` [compound 14, 2-[2-(7-Methoxynaphth-1-yl)ethylamino]-5-methyl-1,3-thiazole], for which the Ki in test [1] was 354 ± 32 nM; in test [2] it was 389 ± 121 nM.

As to `COc1ccc2cccc3c2c1CN(C(C)=O)CC3` [9a, 1-(10-Methoxy-1,2,3,4-tetrahydro-naphto[1,8-cd]azepin-2-yl)ethanone], the Ki came out at 469 ± 44 nM in test [1] and 2500 ± 57 nM in test [2].

As to `COc1ccc2cccc(CCN3CCCC3=O)c2c1` [7b], the Ki stood at 2.1 ± 0.01 nM in test [1] and 68.5 ± 18.2 nM in test [2].

Regarding `COc1ccc2cccc(CCNc3nccs3)c2c1` [compound 13, 2-[2-(7-Methoxynaphth-1-yl)]-ethylamino]-1,3-thiazole hydrochloride], the Ki in test [1] is 12.5 ± 0.4 nM; in test [2] it was 33.9 ± 8.1 nM.

Take `COc1ccc2cccc(CCNc3cc(C)on3)c2c1` [compound 15, 3-[2-(7-Methoxynaphth-1-yl)ethylamino]-5-methyl-1,2-isoxazole hydrochloride]: the inhibition constant (Ki) in test [1] amounted to 20.3 ± 3.9 nM; in test [2], 48.4 ± 11.2 nM.

Regarding `COc1ccc2cccc(CC3NC(=O)NC3=O)c2c1` (stereo not shown) [compound 12, 5-[(7-Methoxynaphth-1-yl)methyl]-imidazolidin-2,4-diones], the values for the Ki in test [1] and in test [2] were 141 ± 31 nM and 2170 ± 63 nM, respectively.

As for `COc1ccc2cccc(Cc3noc(=O)[nH]3)c2c1` [compound 4, 3-[(7-Methoxynaphth-1-yl)methyl]-1,2,4-oxadiazole-5(4H)-one], the Ki in test [1] was determined as 25.2 ± 10.7 nM; in test [2], 80 ± 16 nM.

Regarding `COc1ccc2cccc(CCN3CCOC3=O)c2c1` [7a], the Ki in test [1] was found to be 6 ± 0.2 nM; in test [2], 113 ± 18 nM.

Values taken from article PMC6269769, “Novel Conformationally Constrained Analogues of Agomelatine as New Melatoninergic Ligands” (Molecules, 2012).
